Experimental data published in patent publication US20240327364A1, “THERAPEUTIC TARGETING OF GPR68 TO INDUCE FERROPTOSIS” (University Of Maryland, Baltimore, priority 2023, published 2024).

Experiments:
[1] = tested on: U87; assay: Western blot (TFRC, HO-1, cleaved caspase 3); type: cell-based, human
Procedure: Using Pierce™ BCA Protein Assay Kit (ThermoFisher Scientific™), protein concentrations were determined for each sample following manufacturing protocol. Gel electrophoresis was conducted on NuPAGE™ 4-12% Bis-Tris gels (Invitrogen™) using 20 ug of total protein per sample. Proteins were transferred to PVDF membranes by semi-dry transfer. Membranes were blocked using Intercept® (PBS) Blocking Buffer (LI-COR™) for one hour at room temperature on a tilting shaker. Primary antibodies in 5% non-fat dry milk were added to the membranes for overnight incubation at 4° C. on a rotating shaker. Primary antibodies included transferrin receptor (TFRC), heme-oxygenase 1 (HO-1), and cleaved caspase 3 with GAPDH and α-tubulin used as normalization controls. The next day, membranes were washed in three, five-minute intervals with PBST (Tween 0.5%). Corresponding secondary HRP-conjugated antibodies in 5% non-fat dry milk were added to incubate at room temperature for one hour on a tilting shaker. The membranes were washed with PBST in four, five-minute intervals before protein visualization using Radiance Q (Azure Biosystems™) on Bio-Rad™ ChemiDoc™ MP Imaging System. Protein quantification was completed in triplicate using Fiji software package.

[2] = target: T1, ABL1(F317L)-phosphorylated (Homo sapiens, UniProt P00519, F317L); assay: KinomeScan; type: binding; conditions: read-out: % Control
T1 construct: purchased DiscoveRx
T1 sequence (P00519 242-493 F317L limits assumed): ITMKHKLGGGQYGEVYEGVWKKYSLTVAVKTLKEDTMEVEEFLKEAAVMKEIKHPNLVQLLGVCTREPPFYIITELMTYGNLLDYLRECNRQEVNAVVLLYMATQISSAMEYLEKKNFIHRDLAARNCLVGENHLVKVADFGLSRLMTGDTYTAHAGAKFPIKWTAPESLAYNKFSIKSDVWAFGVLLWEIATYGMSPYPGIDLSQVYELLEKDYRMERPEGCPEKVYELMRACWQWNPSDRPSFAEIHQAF

[3] = target: T2, AKT1 (Homo sapiens, UniProt P31749); assay: KinomeScan; type: binding; conditions: read-out: % Control
T2 construct: purchased DiscoveRx (Fremont, CA)
T2 sequence (P31749 whole entry): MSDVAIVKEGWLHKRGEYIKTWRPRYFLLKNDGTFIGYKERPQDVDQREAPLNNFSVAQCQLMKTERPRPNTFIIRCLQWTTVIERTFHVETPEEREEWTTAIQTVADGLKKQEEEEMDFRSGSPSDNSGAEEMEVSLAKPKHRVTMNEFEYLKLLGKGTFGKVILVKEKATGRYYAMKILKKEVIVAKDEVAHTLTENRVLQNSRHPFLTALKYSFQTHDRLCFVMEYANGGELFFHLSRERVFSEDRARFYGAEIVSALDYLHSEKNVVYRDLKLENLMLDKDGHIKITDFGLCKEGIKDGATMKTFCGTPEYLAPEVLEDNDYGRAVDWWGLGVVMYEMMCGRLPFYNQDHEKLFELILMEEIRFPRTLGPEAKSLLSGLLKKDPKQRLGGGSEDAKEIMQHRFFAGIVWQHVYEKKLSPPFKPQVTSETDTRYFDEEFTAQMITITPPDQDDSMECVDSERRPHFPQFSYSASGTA

[4] = target: CSNK1G1 (Homo sapiens, UniProt Q9HCP0); assay: KinomeScan; type: binding; conditions: read-out: % Control
[5] = target: T3, EGFR(S752-1759del) (Homo sapiens, UniProt P00533, DEL752-759); assay: KinomeScan; type: binding; conditions: read-out: % Control
T3 construct: purchased DiscoveRx (Fremont, CA)

[6] = target: T4, IGF1R (Homo sapiens, UniProt P08069); assay: KinomeScan; type: binding; conditions: read-out: % Control
T4 construct: purchased DiscoveRx (Fremont, CA)

[7] = target: T5, JAK1(JH1domain-catalytic) (Homo sapiens, UniProt P23458); assay: KinomeScan; type: binding; conditions: read-out: % Control
T5 construct: JAK1(JH1domain-catalytic); purchased DiscoveRx (Fremont, CA)
T5 sequence (P23458 875-1153 limits assumed): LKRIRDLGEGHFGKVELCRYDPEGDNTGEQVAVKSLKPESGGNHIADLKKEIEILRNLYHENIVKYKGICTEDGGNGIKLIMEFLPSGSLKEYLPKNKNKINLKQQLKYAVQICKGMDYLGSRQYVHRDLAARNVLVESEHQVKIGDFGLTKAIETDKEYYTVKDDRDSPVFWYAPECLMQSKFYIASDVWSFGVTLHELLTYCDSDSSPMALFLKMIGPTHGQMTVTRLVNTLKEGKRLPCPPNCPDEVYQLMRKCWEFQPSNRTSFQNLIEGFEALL

[8] = target: T6, JNK1 (Homo sapiens, UniProt P45983); assay: KinomeScan; type: binding; conditions: read-out: % Control
T6 construct: purchased DiscoveRx

[9] = target: T7, MAP4K4 (Homo sapiens, UniProt O95819); assay: KinomeScan; type: binding; conditions: read-out: % Control
T7 construct: purchased DiscoveRx (Fremont, CA)
T7 sequence (O95819 whole entry): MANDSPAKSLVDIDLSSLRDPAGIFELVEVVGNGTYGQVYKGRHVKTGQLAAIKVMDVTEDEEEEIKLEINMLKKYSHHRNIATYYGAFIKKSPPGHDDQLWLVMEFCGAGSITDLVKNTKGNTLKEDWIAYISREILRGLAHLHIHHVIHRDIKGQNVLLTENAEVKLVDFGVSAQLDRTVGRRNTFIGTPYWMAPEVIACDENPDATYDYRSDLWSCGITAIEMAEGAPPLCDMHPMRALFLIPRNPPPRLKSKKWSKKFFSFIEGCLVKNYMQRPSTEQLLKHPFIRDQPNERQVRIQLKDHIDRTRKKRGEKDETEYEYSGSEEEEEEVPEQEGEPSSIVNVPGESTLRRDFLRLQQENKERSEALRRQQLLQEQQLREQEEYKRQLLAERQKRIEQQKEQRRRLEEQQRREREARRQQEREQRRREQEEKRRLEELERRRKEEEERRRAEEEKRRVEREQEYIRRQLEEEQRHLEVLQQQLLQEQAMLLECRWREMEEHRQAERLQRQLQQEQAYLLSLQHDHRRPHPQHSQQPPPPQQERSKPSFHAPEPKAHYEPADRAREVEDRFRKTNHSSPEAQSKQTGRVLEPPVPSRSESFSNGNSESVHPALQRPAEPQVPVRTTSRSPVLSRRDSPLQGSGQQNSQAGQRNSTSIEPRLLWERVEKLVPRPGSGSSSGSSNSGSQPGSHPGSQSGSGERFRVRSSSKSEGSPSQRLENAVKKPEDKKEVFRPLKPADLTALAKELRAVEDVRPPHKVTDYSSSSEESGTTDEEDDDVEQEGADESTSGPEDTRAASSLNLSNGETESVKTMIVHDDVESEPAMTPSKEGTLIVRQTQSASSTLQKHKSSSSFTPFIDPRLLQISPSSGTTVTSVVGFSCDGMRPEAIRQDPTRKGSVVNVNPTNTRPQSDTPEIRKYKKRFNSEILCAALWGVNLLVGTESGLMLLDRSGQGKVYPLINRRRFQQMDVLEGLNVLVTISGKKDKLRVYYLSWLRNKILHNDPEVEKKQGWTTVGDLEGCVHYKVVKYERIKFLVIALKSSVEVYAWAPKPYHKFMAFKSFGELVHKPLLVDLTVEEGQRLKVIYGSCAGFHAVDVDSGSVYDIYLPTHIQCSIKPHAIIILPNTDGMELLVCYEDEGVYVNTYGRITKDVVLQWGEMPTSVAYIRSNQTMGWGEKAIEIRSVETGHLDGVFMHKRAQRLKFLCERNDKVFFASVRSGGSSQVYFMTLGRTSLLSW

[10] = target: T8, MELK (Homo sapiens, UniProt Q14680); assay: KinomeScan; type: binding; conditions: read-out: % Control
T8 construct: purchased DiscoveRx (Fremont, CA)

[11] = target: T9, MST1 (Homo sapiens, UniProt Q13043); assay: KinomeScan; type: binding; conditions: read-out: % Control
T9 construct: purchased DiscoveRx

[12] = target: T10, PIK3CA(M1043I) (Homo sapiens, UniProt P42336, M1043I); assay: KinomeScan; type: binding; conditions: read-out: % Control
T10 construct: purchased DiscoveRx (Fremont, CA)

[13] = target: T11, PIK3CG (Homo sapiens, UniProt P48736); assay: KinomeScan; type: binding; conditions: read-out: % Control
T11 construct: purchased DiscoveRx (Fremont, CA)

[14] = target: T12, PIM1 (Homo sapiens, UniProt P11309); assay: KinomeScan; type: binding; conditions: read-out: % Control
T12 construct: purchased DiscoveRx (Fremont, CA)

[15] = target: T13, RET (Homo sapiens, UniProt P07949); assay: KinomeScan; type: binding; conditions: read-out: % Control
T13 construct: purchased DiscoveRx (Fremont, CA)

[16] = target: T14, RIPK2 (Homo sapiens, UniProt O43353); assay: KinomeScan; type: binding; conditions: read-out: % Control
T14 construct: purchased DiscoveRx (Fremont, CA)

[17] = target: T15, RSK1(Kin.Dom.1-N-terminal) (Homo sapiens, UniProt Q15418); assay: KinomeScan; type: binding; conditions: read-out: % Control
T15 construct: RSK1(Kin.Dom.1-N-terminal); purchased DiscoveRx (Fremont, CA)
T15 sequence (Q15418 62-321 limits assumed): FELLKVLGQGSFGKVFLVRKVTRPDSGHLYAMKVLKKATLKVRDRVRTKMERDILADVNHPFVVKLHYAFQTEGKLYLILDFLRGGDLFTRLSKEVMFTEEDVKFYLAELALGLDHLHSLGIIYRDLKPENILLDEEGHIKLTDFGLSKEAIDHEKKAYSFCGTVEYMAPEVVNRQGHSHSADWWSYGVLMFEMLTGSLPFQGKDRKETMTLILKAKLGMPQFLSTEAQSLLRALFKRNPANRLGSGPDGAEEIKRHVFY

[18] = target: T16, RSK3(Kin.Dom.2-C-terminal) (Homo sapiens, UniProt Q15349); assay: KinomeScan; type: binding; conditions: read-out: % Control
T16 construct: RSK3(Kin.Dom.2-C-terminal); purchased DiscoveRx (Fremont, CA)
T16 sequence (Q15349 415-672 limits assumed): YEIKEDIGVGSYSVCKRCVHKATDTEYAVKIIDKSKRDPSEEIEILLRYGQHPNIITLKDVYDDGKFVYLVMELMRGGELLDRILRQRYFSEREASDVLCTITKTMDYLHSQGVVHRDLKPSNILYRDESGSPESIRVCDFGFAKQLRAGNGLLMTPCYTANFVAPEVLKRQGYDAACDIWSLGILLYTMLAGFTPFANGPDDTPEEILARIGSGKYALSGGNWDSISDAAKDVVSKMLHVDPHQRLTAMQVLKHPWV

[19] = target: T17, BB1 (Homo sapiens, UniProt P28336); assay: GPCR Profiler; type: cell-based
T17 construct: host or cells: Chem-1 cells with promiscuous Gα15
T17 sequence (P28336 whole entry): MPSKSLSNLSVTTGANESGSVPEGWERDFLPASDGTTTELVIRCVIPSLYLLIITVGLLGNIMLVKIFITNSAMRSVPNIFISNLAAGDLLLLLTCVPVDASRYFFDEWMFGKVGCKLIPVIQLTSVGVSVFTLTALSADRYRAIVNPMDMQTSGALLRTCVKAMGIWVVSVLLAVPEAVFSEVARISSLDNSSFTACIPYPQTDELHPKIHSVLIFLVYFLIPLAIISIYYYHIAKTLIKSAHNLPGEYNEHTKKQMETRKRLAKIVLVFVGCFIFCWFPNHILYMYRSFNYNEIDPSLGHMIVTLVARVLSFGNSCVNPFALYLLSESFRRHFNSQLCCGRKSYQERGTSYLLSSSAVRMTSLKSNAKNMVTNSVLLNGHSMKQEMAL

[20] = target: T18, P2Y12 (Homo sapiens, UniProt Q9H244); assay: GPCR Profiler; type: cell-based
T18 construct: host or cells: Chem-1 cells expressing Gα15
T18 sequence (Q9H244 whole entry, species assumed): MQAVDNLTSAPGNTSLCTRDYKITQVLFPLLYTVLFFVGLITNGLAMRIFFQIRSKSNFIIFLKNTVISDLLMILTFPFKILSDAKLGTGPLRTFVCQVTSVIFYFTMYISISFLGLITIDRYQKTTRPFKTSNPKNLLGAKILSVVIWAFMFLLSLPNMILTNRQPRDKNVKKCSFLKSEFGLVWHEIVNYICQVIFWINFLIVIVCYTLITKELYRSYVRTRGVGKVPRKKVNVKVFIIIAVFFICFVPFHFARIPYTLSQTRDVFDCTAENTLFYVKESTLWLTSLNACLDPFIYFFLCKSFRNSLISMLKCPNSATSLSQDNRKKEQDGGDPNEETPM

[21] = target: T19, PTH1 (Homo sapiens, UniProt Q03431); assay: GPCR Profiler; type: cell-based
T19 construct: host or cells: Chem-1 cells with Gα15
T19 sequence (Q03431 27-593): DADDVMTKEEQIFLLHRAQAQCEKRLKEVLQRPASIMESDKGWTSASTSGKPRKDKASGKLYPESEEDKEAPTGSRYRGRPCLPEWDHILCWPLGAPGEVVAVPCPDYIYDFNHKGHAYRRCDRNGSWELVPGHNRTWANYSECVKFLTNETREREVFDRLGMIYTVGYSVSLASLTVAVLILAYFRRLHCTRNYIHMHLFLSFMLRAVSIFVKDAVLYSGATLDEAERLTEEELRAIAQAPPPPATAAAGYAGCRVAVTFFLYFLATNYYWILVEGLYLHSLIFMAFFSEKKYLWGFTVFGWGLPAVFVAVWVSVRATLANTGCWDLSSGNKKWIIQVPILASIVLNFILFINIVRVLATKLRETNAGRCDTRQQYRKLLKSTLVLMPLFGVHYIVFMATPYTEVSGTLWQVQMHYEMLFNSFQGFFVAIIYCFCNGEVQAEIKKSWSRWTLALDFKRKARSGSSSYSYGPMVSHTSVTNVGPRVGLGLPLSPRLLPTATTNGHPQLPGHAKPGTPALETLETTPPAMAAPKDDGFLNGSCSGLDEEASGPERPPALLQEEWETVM

[22] = target: T20, S1P3 (Homo sapiens, UniProt Q99500); assay: GPCR Profiler; type: cell-based
T20 construct: host or cells: Chem-1 cells with Gα15
T20 sequence (Q99500 whole entry, species assumed): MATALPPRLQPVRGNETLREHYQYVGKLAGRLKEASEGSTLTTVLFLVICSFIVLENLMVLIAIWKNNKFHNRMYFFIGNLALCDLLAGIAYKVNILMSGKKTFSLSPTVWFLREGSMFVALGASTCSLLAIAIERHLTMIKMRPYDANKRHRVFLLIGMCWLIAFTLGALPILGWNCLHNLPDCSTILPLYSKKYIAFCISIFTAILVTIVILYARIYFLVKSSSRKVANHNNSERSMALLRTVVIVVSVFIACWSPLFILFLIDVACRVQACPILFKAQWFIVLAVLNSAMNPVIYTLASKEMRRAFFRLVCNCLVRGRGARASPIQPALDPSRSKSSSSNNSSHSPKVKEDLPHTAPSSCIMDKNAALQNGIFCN

[23] = target: T21, sst4 (Homo sapiens, UniProt P31391); assay: GPCR Profiler; type: cell-based
T21 construct: host or cells: Chem-1 cells with Gα15
T21 sequence (P31391 whole entry, species assumed): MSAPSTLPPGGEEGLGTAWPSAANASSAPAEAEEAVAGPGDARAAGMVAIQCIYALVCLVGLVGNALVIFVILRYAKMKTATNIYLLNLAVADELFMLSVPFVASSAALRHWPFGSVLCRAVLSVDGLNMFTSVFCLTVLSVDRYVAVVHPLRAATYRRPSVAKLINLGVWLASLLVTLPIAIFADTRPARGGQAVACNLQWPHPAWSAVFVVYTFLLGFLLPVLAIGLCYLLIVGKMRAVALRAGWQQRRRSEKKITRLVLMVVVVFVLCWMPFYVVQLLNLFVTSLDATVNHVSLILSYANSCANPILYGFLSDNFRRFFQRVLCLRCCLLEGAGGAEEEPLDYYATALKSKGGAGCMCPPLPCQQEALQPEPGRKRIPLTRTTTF

[24] = tested on: 158 GPCRs; assay: GPCR profiling panel (summary); type: cell-based; conditions: 10 μM
Procedure: GPCR profiling assays were performed by Millipore (St. Louis, MO) using in cells expressing Gα15, a promiscuous G protein that enhances GPCR coupling to downstream Ca2+ signaling pathways. KinomeScan was conducted by DiscoveRx (Fremont, CA).
Since GPCRs represent >30% of targets for FDA-approved small molecules and are known to modulate cell migration, activity against 158 GPCRs was assessed based on their chemical structures. GPCRs (158) were tested for agonist and antagonist activity at 10 μM. […] Chemical segregation analysis of zebrafish phenotype was conducted to further identify the inhibitory activity responsible for the zebrafish phenotype. […] The identities of the R groups in Formula A are shown below in Table 5.
To identify the target of OGM1, the molecule was profiled for binding in a panel of 442 kinases (KinomeScan™, DiscoveRx™) and assessed its activity against 158 GPCRs in a single-point assay in Chem-1 cells that uses a promiscuous Gα15 protein to trigger calcium flux (see Table 9 and Table 10, below). […] Table 9. KinomeScan (DiscoverRx) profiling of OGM1.

CCc1ccc2c(c1)C1(NN=C(c3ccccc3)S1)C(=O)N2 (stereo not drawn) [OGM2] was tested, and the “cleaved caspase 3 level” value [1] was “did not increase” and the “protein levels of TFRC and HO-1” value [1] was “significantly increased”.

Compound CCc1ccc2c(c1)C1(NN=C(c3cccc4ccccc34)S1)C(=O)N2 (stereo not drawn) [OGM1, 5-ethyl-5′-naphthalen-1-ylspiro[1H-indole-3,2′-3H-1,3,4-thiadiazole]-2-one] has a remaining binding at 10 µM [2] of 92%, a remaining binding at 10 µM [3] of 78% and a remaining binding at 10 µM [4] of 82%. It also gave a remaining binding at 10 µM [5] of 91%, a remaining binding at 10 µM [6] of 84% and a remaining binding at 10 µM [7] of 59%. For the same compound, the remaining binding at 10 µM [8] was 63%, the remaining binding at 10 µM [9] was 100% and the remaining binding at 10 µM [10] was 100%. For the same compound, the remaining binding at 10 µM [11] was 100%, the remaining binding at 10 µM [12] was 59% and the remaining binding at 10 µM [13] was 100%. It also gave a remaining binding at 10 µM [14] of 56%, a remaining binding at 10 µM [15] of 100% and a remaining binding at 10 µM [16] of 100%. For the same compound, the remaining binding at 10 µM [17] was 78%, the remaining binding at 10 µM [18] was 54% and the Antagonism ([19]; 10 uM) was 3.5. The Agonism ([19]; 12.5 uM) was −0.2, the Antagonism ([20]; 10 uM) was −0.3 and the Agonism ([20]; 12.5 uM) was 1. It also gave an Antagonism ([21]; 10 uM) of 2.2, an Agonism ([21]; 12.5 uM) of 0.7 and an Antagonism ([22]; 10 uM) of −3.7. For the same compound, the Agonism ([22]; 12.5 uM) was 0.2, the Antagonism ([23]; 10 uM) was −2.6 and the Agonism ([23]; 12.5 uM) was −1.1. For the same compound, the GPCRs significantly inhibited [24] was “significantly inhibited only the lysophosphatidic acid receptor 1 (LPAR1), and extracellular proton-sensing GPR68/OGR1”.
